Test results taken from patent US11613522B2, “Herbicidally active 3-phenylisoxazoline-5-carboxamides of tetrahydro- and dihydrofurancarboxamides” (BAYER AKTIENGESELLSCHAFT, priority 2017, dated 2023).

Assays:
Assay type in all cases: in vivo
[1] = system: Avena fatua; experiment: Pre-emergence herbicidal activity against AVEFA; details: Avena fatua, 504 h, dosage 80 g/ha, scored visually after about 3 weeks vs untreated controls, read-out: Pre-emergence herbicidal activity in % against AVEVA (AVEFA)
Description: (§1) 1. Pre-emergence herbicidal action against harmful plants and crop plant compatibility Seeds of monocotyledonous and dicotyledonous weed plants and crop plants are placed in plastic or wood fiber pots and covered with soil. The compounds of the invention, formulated in the form of wettable powders (WP) or as emulsion concentrates (EC), are then applied onto the surface of the covering soil as aqueous suspension or emulsion with addition of 0.5% additive at a water application rate of 600 l/ha (converted). After the treatment, the pots are placed in a greenhouse and kept under good growth conditions for the trial plants. After about 3 weeks, the effect of the preparations is scored visually in comparison with untreated controls as percentages. For example, 100% activity=the plants have died, 0% activity=like control plants. [table]

[2] = system: Echinochloa crus-galli; experiment: Pre-emergence herbicidal activity against ECHCG; details: Echinochloa crus-galli, 504 h, dosage 80 g/ha, scored visually after about 3 weeks vs untreated controls
Description: as §1

[3] = system: Lolium rigidum; experiment: Pre-emergence herbicidal activity against LOLRI; details: Lolium rigidum, 504 h, dosage 80 g/ha, scored visually after about 3 weeks vs untreated controls
Description: as §1

[4] = system: Setaria viridis; experiment: Pre-emergence herbicidal activity against SETVI; details: Setaria viridis, 504 h, dosage 80 g/ha, scored visually after about 3 weeks vs untreated controls
Description: as §1

[5] = system: Polygonum convolvulus; experiment: Pre-emergence herbicidal activity against POLCO; details: Fallopia convolvulus, 504 h, dosage 80 g/ha, scored visually after about 3 weeks vs untreated controls
Description: as §1

[6] = system: Stellaria media; experiment: Pre-emergence herbicidal activity against STEME; details: Stellaria media, 504 h, dosage 80 g/ha, scored visually after about 3 weeks vs untreated controls
Description: as §1

[7] = system: Viola tricolor; experiment: Pre-emergence herbicidal activity against VIOTR; details: Viola tricolor, 504 h, dosage 80 g/ha, scored visually after about 3 weeks vs untreated controls
Description: as §1

[8] = system: Hordeum murinum; experiment: Pre-emergence herbicidal activity against HORMU; details: Hordeum murinum, 504 h, dosage 80 g/ha
Description: as §1

[9] = system: Alopecurus myosuroides; experiment: Post-emergence herbicidal activity against ALOMY; details: Alopecurus myosuroides, 504 h, dosage 320 g/ha, rated visually after about 3 weeks
Experimental: (§2) [table] Seeds of monocotyledonous and dicotyledonous weeds and crop plants are placed in sandy loam in plastic or wood-fiber pots, covered with soil and cultivated in a greenhouse under controlled growth conditions. 2 to 3 weeks after sowing, the test plants are treated at the one-leaf stage. The compounds of the invention, formulated in the form of wettable powders (WP) or as emulsion concentrates (EC), are then sprayed onto the green parts of the plants as aqueous suspension or emulsion with addition of 0.5% additive at a water application rate of 600 l/ha (converted). After the test plants had been kept in the greenhouse under optimum growth conditions for about 3 weeks, the activity of the preparations is rated visually in comparison to untreated controls. For example, 100% activity=the plants have died, 0% activity=like control plants.

[10] = system: Avena fatua; experiment: Post-emergence herbicidal activity against AVEFA; details: Avena fatua, 504 h, dosage 320 g/ha, rated visually after about 3 weeks
Experimental: as §2

[11] = system: Echinochloa crus-galli; experiment: Post-emergence herbicidal activity against ECHCG; details: Echinochloa crus-galli, 504 h, dosage 320 g/ha, rated visually after about 3 weeks
Experimental: as §2

[12] = system: Lolium rigidum; experiment: Post-emergence herbicidal activity against LOLRI; details: Lolium rigidum, 504 h, dosage 320 g/ha, rated visually after about 3 weeks
Experimental: as §2

[13] = system: Setaria viridis; experiment: Post-emergence herbicidal activity against SETVI; details: Setaria viridis, 504 h, dosage 320 g/ha, rated visually after about 3 weeks
Experimental: as §2

[14] = system: Abutilon theophrasti; experiment: Post-emergence herbicidal activity against ABUTH; details: Abutilon theophrasti, 504 h, dosage 320 g/ha, rated visually after about 3 weeks
Experimental: as §2

[15] = system: Amaranthus retroflexus; experiment: Post-emergence herbicidal activity against AMARE; details: Amaranthus retroflexus, 504 h, dosage 320 g/ha, rated visually after about 3 weeks
Experimental: as §2

[16] = system: Pharbitis purpurea; experiment: Post-emergence herbicidal activity against PHBPU; details: Ipomoea purpurea, 504 h, dosage 320 g/ha, rated visually after about 3 weeks
Experimental: as §2

[17] = system: Polygonum convolvulus; experiment: Post-emergence herbicidal activity against POLCO; details: Fallopia convolvulus, 504 h, dosage 320 g/ha, rated visually after about 3 weeks
Experimental: as §2

[18] = system: Stellaria media; experiment: Post-emergence herbicidal activity against STEME; details: Stellaria media, 504 h, dosage 320 g/ha, rated visually after about 3 weeks
Experimental: as §2

[19] = system: Viola tricolor; experiment: Post-emergence herbicidal activity against VIOTR; details: Viola tricolor, 504 h, dosage 320 g/ha, rated visually after about 3 weeks
Experimental: as §2

[20] = system: Veronica persica; experiment: Post-emergence herbicidal activity against VERPE; details: Veronica persica, 504 h, dosage 320 g/ha, rated visually after about 3 weeks
Experimental: as §2

[21] = system: Hordeum murinum; experiment: Post-emergence herbicidal activity against HORMU; details: Hordeum murinum, 504 h, dosage 320 g/ha, rated visually after about 3 weeks
Experimental: as §2

[22] = Pre-emergence herbicidal action against harmful plants (summary of the tables); details: 504 h, application rate of 0.08 kg of active substance or less per hectare, read-out: herbicidal action, pre-emergence treatment (very good activity)
Description: as §1, with “plants.” for “plants. [table]”
As shown by the results, compounds according to the invention such as, for example, the compounds No. I-02 and other compounds from the tables (I-05, I-10, I-11, I-12, I-13, I-14, I-15, I-16, I-17, I-18, I-19, I-20, I-21, I-22, I-23, I-24, I-25, I-26, I-27, I-28, I-29) have, when used for pre-emergence treatment, very good activity (80% to 100% herbicidal action) against harmful plants such as Abutilon theophrasti, Alopecurus myosuroides, Amaranthus retroflexus, Avena fatua, Cyperus esculentus, Echinochloa crus-galli, Hordeum murinum, Lolium rigidum, Pharbitis purpurea, Polygonum convolvulus, Setaria viridis, Stellaria media, Veronica persica and Viola tricolor at an application rate of 0.08 kg of active substance or less per hectare.

[23] = system: Alopecurus myosuroides; experiment: Pre-emergence herbicidal activity against ALOMY; details: Alopecurus myosuroides, 504 h, dosage 80 g/ha, scored visually after about 3 weeks vs untreated controls
Description: as §1

[24] = system: Amaranthus retroflexus; experiment: Pre-emergence herbicidal activity against AMARE; details: Amaranthus retroflexus, 504 h, dosage 80 g/ha, scored visually after about 3 weeks vs untreated controls
Description: as §1

[25] = system: Veronica persica; experiment: Pre-emergence herbicidal activity against VERPE; details: Veronica persica, 504 h, dosage 80 g/ha
Description: as §1

SMILES	pest or weed control at 80 g/ha [1] [%]	pest or weed control at 80 g/ha [2] [%]	pest or weed control at 80 g/ha [6] [%]	pest or weed control at 320 g/ha [9] [%]	pest or weed control at 320 g/ha [10] [%]	pest or weed control at 320 g/ha [11] [%]	pest or weed control at 320 g/ha [13] [%]	pest or weed control at 320 g/ha [14] [%]	pest or weed control at 320 g/ha [16] [%]	pest or weed control at 320 g/ha [18] [%]	pest or weed control at 320 g/ha [19] [%]	pest or weed control at 320 g/ha [20] [%]	pest or weed control at 80 g/ha [22] [%]	also measured
C=C[C@]1(C(=O)N[C@H]2CO[C@@H](C(=O)NNC(=O)OC(C)(C)C)C2)CC(c2cc(F)cc(F)c2)=NO1 (mixture of isomers) [Example I-19, tert-butyl N-[[cis-4-[[(5S)-3-(3,5-difluorophenyl)-5-vinyl-4H-isoxazole-5-carbonyl]amino]tetrahydrofuran-2-carbonyl]amino]carbamate]	90	80	90	90	90	90	90	90	90	90	90	80	80 to 100	pest or weed control at 80 g/ha [3]: 100%; pest or weed control at 80 g/ha [4]: 90%; pest or weed control at 80 g/ha [5]: 90%; pest or weed control at 80 g/ha [7]: 80%; pest or weed control at 80 g/ha [8]: 100%; pest or weed control at 320 g/ha [12]: 90%; pest or weed control at 320 g/ha [15]: 90%; pest or weed control at 320 g/ha [17]: 90%; pest or weed control at 320 g/ha [21]: 90%
C=CC1(C(=O)N[C@@H]2CO[C@H](C(=O)NC)C2)CC(c2cc(F)cc(F)c2)=NO1 (relative stereo) [Example I-02, 3-(3,5-difluorophenyl)-N-[cis-5-(methylcarbamoyl)tetrahydrofuran-3-yl]-5-vinyl-4H-isoxazole-5-carboxamide]	100	100	100	100	90	80	90	80	90	90	80	80	80 to 100	pest or weed control at 80 g/ha [23]: 90%; pest or weed control at 80 g/ha [24]: 100%; pest or weed control at 80 g/ha [25]: 90%
